Laboratory results as given in paper PMC4961957, “Dose-Dependent Suppression of Cytokine production from T cells by a Novel Phosphoinositide 3-Kinase Delta Inhibitor” (Scientific Reports, 2016).

Biological target: T1, PI3Kδ (p110δ) (Homo sapiens, UniProt O00329)
T1 construct: gene PIK3CD
Test: FRET-based in vitro kinase assay; class I PI3K binding also seen in KinomeScan ATP-site competition panel ([…])
Assay type: biochemical

T1 sequence (O00329 whole entry): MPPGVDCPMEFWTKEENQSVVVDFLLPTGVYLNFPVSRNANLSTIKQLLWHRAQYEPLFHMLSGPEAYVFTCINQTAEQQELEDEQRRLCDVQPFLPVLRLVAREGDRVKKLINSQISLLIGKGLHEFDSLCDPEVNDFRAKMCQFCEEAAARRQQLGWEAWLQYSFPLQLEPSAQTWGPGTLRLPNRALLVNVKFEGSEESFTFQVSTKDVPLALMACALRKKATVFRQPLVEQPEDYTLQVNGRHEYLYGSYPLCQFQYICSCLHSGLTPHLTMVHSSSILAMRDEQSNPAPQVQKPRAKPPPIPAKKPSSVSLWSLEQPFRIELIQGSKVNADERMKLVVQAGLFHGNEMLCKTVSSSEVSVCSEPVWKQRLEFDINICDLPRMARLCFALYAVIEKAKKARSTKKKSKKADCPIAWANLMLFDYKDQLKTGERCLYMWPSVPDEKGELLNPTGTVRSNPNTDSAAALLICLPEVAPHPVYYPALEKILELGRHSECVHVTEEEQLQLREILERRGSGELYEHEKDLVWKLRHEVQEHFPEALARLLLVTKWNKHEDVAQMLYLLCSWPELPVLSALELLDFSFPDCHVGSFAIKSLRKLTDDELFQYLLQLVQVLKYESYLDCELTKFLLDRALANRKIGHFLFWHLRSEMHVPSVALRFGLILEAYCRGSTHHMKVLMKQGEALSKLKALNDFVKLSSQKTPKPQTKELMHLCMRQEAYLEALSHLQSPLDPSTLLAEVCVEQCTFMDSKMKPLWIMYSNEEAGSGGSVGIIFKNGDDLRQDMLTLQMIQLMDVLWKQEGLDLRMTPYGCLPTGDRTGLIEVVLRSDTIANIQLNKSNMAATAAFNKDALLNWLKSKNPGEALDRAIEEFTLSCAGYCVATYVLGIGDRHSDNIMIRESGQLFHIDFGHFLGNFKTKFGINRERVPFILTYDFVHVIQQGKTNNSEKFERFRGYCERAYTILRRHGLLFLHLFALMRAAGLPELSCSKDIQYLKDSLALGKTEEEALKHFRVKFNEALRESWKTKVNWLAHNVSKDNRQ

GS-649443 [Compound B]
IC50: 280 pM
